Series [1] relates to U‐251 MG cells. Kind of series: MTT cell viability assay, U‐251 MG glioblastoma cells, 5 days treatment. Format: cell-based, human. The conditions noted are these: 5 days treatment, 100–0 µM. As for the experimental part:
(§1) Dose–response curves for each of the pyrazolo[1,5‐α]pyrimidinones were performed to determine the cytotoxic effect of the compounds on a cancerous, U‐251 MG cell line and a noncancerous, HEK293 cell line. The synthesized pyrazolopyrimidinones were dissolved in DMSO (Merck) to obtain a stock solution which was stored at −20 °C. […] U‐251 MG and HEK293 cells were seeded at a density of 2 x 10^3 cells per well (100 μL) in a 96‐well plate (Sarstedt) and incubated for 24 h prior to each treatment to allow for cell adhesion. The stock solution was diluted in media to working concentrations of 100, 75, 50, 25, 10, 5, and 0.1 μM. Media on the seeded cells was then replaced with the working concentrations of the compound or the controls in a 96‐well plate (100 μL). The treated plate was incubated at 37 °C in the humidified incubator for 5 days. Cell viability was assessed after 5 days using the MTT assay. Dose–response curves were then plotted relative to the positive control whereby cells were treated 20% DMSO and a negative control whereby cells were maintained in fresh DMEM.
(§2) To determine the extent of the cytotoxic effect of the pyrazolopyrimidinone on each cell line, the cell viability at each working concentration was determined via the MTT assay (Merck). The working solution of MTT used was 5 mg MTT per 1 ml of PBS diluted in 9 ml of media. After 5 days of incubation, the treatment was removed from each of the wells and replaced with 100 μL of fresh MTT solution. The plate was then incubated for 3 h at 37 °C in a humidified incubator to allow the reduction of the yellow tetrazolium salt to purple formazan crystals. After the incubation, the MTT solution was removed from the wells and replaced with 100 μL of DMSO for 15 min to dissolve the formazan crystals. The absorbance was read at 570 nm using a spectrophotometric microplate reader (Thermo Fisher Scientific).
(§3) Each of the experiments was performed at least three independent times, with a minimum of six technical replicates per experiment. Statistical analysis was carried out using GraphPad Prism version 8.0.0 (GraphPad Softwares, Inc.). Curve fitting and the IC50 values were obtained through the dose–response curves using nonlinear regression. To determine if the dose–response curves were statistically distinct and not overlapping, extra sum‐of‐squares F‐test was used, and a p‐value was obtained. The effect of compound treatment on both cell lines was statistically compared via two‐way ANOVA with Tukey's post‐test. The CytExpert (Beckman Coulter) software was used for flow cytometry analysis. Graphs represent the % dead cells whereby the total number of dead cells was divided by the total cell population. The statistical significance of the flow cytometry results was determined via one‐way analysis of variance (ANOVA) with Dunnett's T3 multiple comparison post‐test. Data is presented as the mean ± standard error of mean (SEM). Summary of results from statistical analysis reports p‐values as follows: ≥0.05 (ns), 0.01–0.05 (*), 0.001–0.01 (**), […], and <0.0001(****).

Series [2] deals with U‐251 MG cells. Kind of series: JC‐1 flow cytometry, mitochondrial membrane depolarization / apoptosis. Format: cell-based, human. The conditions noted are these: U‐251 MG, 5 days; for JC-1: significance of cell death, Neg Ctrl v HNT: highest non-toxic concentration; for JC-1: significance of cell death, Neg Ctrl v 50 µM: highest toxic concentration 50 µM. The protocol:
JC‐1 dye forms aggregates in healthy mitochondria which changes the fluorescent property of the dye. […] Stock solutions of JC‐1 dye (Merck) were prepared at 1 mg/mL in DMSO and stored at −20 °C. U‐251 MG cells were seeded in 6‐well plates (Sarstedt) at a seeding density of 2 x 10^4 cells per well (1000μL) after which cells were treated with drug concentrations (highest toxic, IC50, nontoxic). After 5 days incubation, the compound and wash step with PBS was collected in falcon tubes. The cells were then harvested by trypsinization (500 μL), incubated for a period of 6 min, neutralized with media (1000 μL), and pelleted at 1200rpm for 5 min. A JC‐1 working solution of 2 μg/mL was made up in DMEM and was light protected. The cell pellet was resuspended and stained with 2 μg/mL JC‐1 dye and incubated and protected from the light for a period of 10 min. Cells were then centrifuged at 1200rpm for 5 min. The supernatant was removed, and cells were washed with 1 mL of sterile PBS. This was repeated twice. […] Cells were also treated using controls whereby the positive control used was DMEM and 20% DMSO and the negative control used was fresh media. The cells were then analyzed using flow cytometry (Beckmann Coulter, CytExpert version 2.4.0.28). Fluorescence was measured using FL1 (FITC) (530 nm) and FL2 (PE) (595 nm) channels with emission.
as §3
(In flow cytometry, cells or beads pass a laser one at a time.)

The test system of series [3] is U‐251 MG cells. Kind of series: Propidium iodide (PI) flow cytometry, cell membrane permeabilization. In kind it is cell-based, human. The conditions noted are these: 5 days; for PI: significance of cell death, Neg Ctrl v HNT: highest non-toxic concentration; for PI: significance of cell death, Neg Ctrl v 50 µM: highest toxic concentration 50 µM. The protocol: Propidium iodide (PI) is a DNA staining, cell membrane impermeable dye which was used to assess cell death via loss of membrane integrity and is used to indicate necrotic or late apoptotic cells. Stock solutions of PI dye (Merck, Ireland) were prepared at 10 μg/mL in PBS and stored at −20 °C. U‐251 MG cells were seeded in 96‐well plates at a seeding density of 2 x 10^3 cells per well (100 μL), as previously stated. […] Subsequently, the compound was collected in 15 ml falcon tubes. Cells were washed with PBS (100 μL), and the PBS was collected in corresponding tubes to ensure all cells are collected. The cells were collected using 0.25% trypsin‐EDTA (50 μL) with a 6‐min incubation and media neutralization (100 μL). Each tube was centrifuged at 1200rpm for 5 min to obtain a pellet. The supernatant was removed, and the pellet was resuspended in PBS and transferred to an Eppendorf tube. Ten microliters of PI stain (2.5 μg/ml) was added to the Eppendorf tubes, and the tubes were incubated for a period of 15 min. Cells were also treated using controls whereby the positive control used was DMEM and 20% DMSO and the negative control used was fresh media. The cells were then analyzed using flow cytometry (Beckmann Coulter, CytExpert version 2.4.0.28). Fluorescence was measured using the FL2 channel. PI was detected in the red channel which is R‐phycoerythrin (PE‐Cy5). PE was used in combination with fluorescein isothiocyanate (FITC) and is excited at a wavelength of 488 nm.
as §3

For series [4], the system named is HEK293 cells. Kind of series: MTT cell viability assay, noncancerous HEK293 cells, 5 days treatment. In kind it is cell-based, human. The conditions noted are these: for IC50: 5 days treatment, 100–0 µM; for cytotoxicity / biological response in HEK293, in words: 5 days, up to 100 µM, threshold 50 µM. As for the experimental part: as §1, §2, §3
On the technique in general: Tetrazolium assays rely on reduction of a dye to a coloured formazan, in cell work by metabolically active cells.

Series [5] relates to U‐251 MG and HEK293 cells. Description: Statistical comparison of dose–response in U‐251 MG versus HEK293 (selectivity, HIT criteria). In kind it is cell-based, human. The conditions noted are these: for Selectivity for cancer cells with IC50 < 50 [µM]‐Yes/No: HEK293 IC50 higher than U‐251 MG IC50, U‐251 MG IC50 below 50 µM; for All criteria met -Yes/No: HIT criteria and statistical testing, Table S1.

The subject of series [6] is U‐251 MG cells. The arrangement: method as in He and colleagues (2021). The conditions noted are these: after 2 days of treatment; ref He and colleagues (2021); read-out: cytotoxicity against U‐251 MG cells (IC50); cited from earlier work.

The IC50 is the concentration at which inhibition is half-maximal.

Like-named read-outs stand apart in the source and are kept apart here. Where only a bound is given, the exact number is not on record here.

Turning to `O=c1cc(-c2cc(C(F)(F)F)cc(C(F)(F)F)c2)[nH]c2cc(-c3ccc(Br)cc3)nn12` [Compound 7], in series [1], the IC50 stood at 29.8 µM. Further, in series [1] (Homo sapiens, U-251, 120 h), the half-inhibitory concentration (IC50) is under 50 µM. In series [2], the “JC-1: significance of cell death, Neg Ctrl v HNT” value is on record as “ns (≥0.05 (ns))” and the “JC-1: significance of cell death, Neg Ctrl v 50 µM” value was “**** (<0.0001(****))”. Further, in series [3], the “cell membrane permeabilization‐dependent cell death (PI), in words” value is recorded as “significant cell membrane permeabilization‐dependent cell death” and the “PI: significance of cell death, Neg Ctrl v HNT” value was “* (0.01 to 0.05 (*))”. For the same compound, in series [4], the 50% inhibitory concentration (IC50) came to 60.9 µM and the “cytotoxicity / biological response in HEK293, in words” value is “did not elicit any biological response”. The compound also gave a half-maximal inhibitory concentration (IC50) in series [4] (Homo sapiens, HEK293, 120 h) of over 50 µM. In addition, in series [5], the “Selectivity for cancer cells with IC50 < 50 [µM]‐Yes/No” value (“Selectivity … [µM]‐Yes/No” for short) was “Yes” and the “All criteria met -Yes/No” value was “Yes”.

The compound `O=c1cc(-c2cc(C(F)(F)F)cc(C(F)(F)F)c2)[nH]c2cc(-c3ccc(C(F)(F)F)cc3)nn12` [Compound 9] returned an IC50 in series [1] of 27.5 µM. In addition, the IC50 in series [1] (Homo sapiens, U-251, 120 h) came to 26.8 µM. Besides, in series [2], the “JC-1: significance of cell death, Neg Ctrl v HNT” value is “ns (≥0.05 (ns))” and the “JC-1: significance of cell death, Neg Ctrl v 50 µM” value is “** (0.001 to 0.01 (**))”. Besides, in series [3], the “cell membrane permeabilization‐dependent cell death (PI), in words” value is given as “significant cell membrane permeabilization‐dependent cell death”; the “PI: significance of cell death, Neg Ctrl v HNT” value was “ns (≥0.05 (ns))”; the “PI: significance of cell death, Neg Ctrl v 50 µM” value is on record as “**** (<0.0001(****))”. For the same compound, in series [4], half-maximal inhibition (IC50) was put at 54.4 µM and the “cytotoxicity / biological response in HEK293, in words” value is reported as “did not elicit any biological response”. In addition, the IC50 in series [4] (Homo sapiens, HEK293, 120 h) was over 50 µM. Besides, in series [5], the “Selectivity … [µM]‐Yes/No” value is listed as “Yes” and the “All criteria met -Yes/No” value is on record as “Yes”.

For `O=c1cc(-c2cc(C(F)(F)F)cc(C(F)(F)F)c2)[nH]c2cc(-c3ccccc3Br)nn12` [Compound 22], the IC50 in series [1] was determined as 2.79 µM. Besides, the IC50 in series [1] (Homo sapiens, U-251, 120 h) is 2.79 µM. Also, in series [2], the “JC-1: significance of cell death, Neg Ctrl v HNT” value is listed as “ns (≥0.05 (ns))” and the “JC-1: significance of cell death, Neg Ctrl v 50 µM” value was “* (0.01 to 0.05 (*))”. For the same compound, in series [3], the “cell membrane permeabilization‐dependent cell death (PI), in words” value is recorded as “significant cell membrane permeabilization‐dependent cell death” and the “PI: significance of cell death, Neg Ctrl v 50 µM” value is “**** (<0.0001(****))”. This compound also came in with an IC50 in series [4] (Homo sapiens, HEK293, 120 h) of 66.9 µM. Besides, in series [5], the “Selectivity … [µM]‐Yes/No” value is on record as “Yes” and the “All criteria met -Yes/No” value is “Yes”.

`O=c1cc(-c2ccccc2)[nH]c2cc(-c3ccccc3)nn12` [Compound 15]: the IC50 was 19.9 µM in series [1] (Homo sapiens, U-251, 120 h); 15.9 µM in series [4] (Homo sapiens, HEK293, 120 h); 77.7 µM in series [6]. Further, the “Selectivity … [µM]‐Yes/No” value in series [5] was “No”. Besides, the “All criteria met -Yes/No” value in series [5] is “No”.

Compound `O=c1cc(-c2cc(C(F)(F)F)cc(C(F)(F)F)c2)[nH]c2cc(-c3cccc(Br)c3)nn12` [Compound 21, 5‐(3,5‐Bis(trifluoromethyl)phenyl)‐2‐(3‐bromophenyl)pyrazolo[1,5‐α]pyrimidin‐7(4¬H)‐one] showed an IC50 in series [1] of 0.71 µM. Half-maximal inhibition in series [1] (Homo sapiens, U-251, 120 h) (IC50) was put at 0.714 µM. Further, in series [2], the “JC-1: significance of cell death, Neg Ctrl v HNT” value was “*** (0.001 to 0.01(***))” and the “JC-1: significance of cell death, Neg Ctrl v 50 µM” value is “*** (0.001 to 0.01(***))”. Further, in series [3], the “cell membrane permeabilization‐dependent cell death (PI), in words” value is recorded as “significant cell membrane permeabilization‐dependent cell death”; the “PI: significance of cell death, Neg Ctrl v HNT” value is “ns (≥0.05 (ns))”; the “PI: significance of cell death, Neg Ctrl v 50 µM” value is on record as “**** (<0.0001(****))”. This compound also gave an IC50 in series [4] (Homo sapiens, HEK293, 120 h) of 19 µM. Moreover, in series [5], the “Selectivity … [µM]‐Yes/No” value is given as “Yes” and the “All criteria met -Yes/No” value is “Yes”.
